Measurements taken from BindingDB's records for doi:10.1016/j.ab.2004.03.009 (Schering-Plough Research Institute, 2004).

Target: E3 ubiquitin-protein ligase Mdm2 (Homo sapiens, UniProt Q00987)
Experiment: Fluorescence Polarization (FP) Binding Assay
Conditions: pH 7.4; 23 °C
Protocol: Ki values were determined from a competition experiment in which serial dilutions of inhibitor were added to compete against a fixed concentration (1 or 10 nM) of the fluorescent ligand for binding to a fixed concentration of the protein. Ki value was determined by nonlinear regression fitting of the competition curve using a set of custom equations and an Excel curve fitting tool.

E3 ubiquitin-protein ligase Mdm2, sequence (Q00987 whole entry): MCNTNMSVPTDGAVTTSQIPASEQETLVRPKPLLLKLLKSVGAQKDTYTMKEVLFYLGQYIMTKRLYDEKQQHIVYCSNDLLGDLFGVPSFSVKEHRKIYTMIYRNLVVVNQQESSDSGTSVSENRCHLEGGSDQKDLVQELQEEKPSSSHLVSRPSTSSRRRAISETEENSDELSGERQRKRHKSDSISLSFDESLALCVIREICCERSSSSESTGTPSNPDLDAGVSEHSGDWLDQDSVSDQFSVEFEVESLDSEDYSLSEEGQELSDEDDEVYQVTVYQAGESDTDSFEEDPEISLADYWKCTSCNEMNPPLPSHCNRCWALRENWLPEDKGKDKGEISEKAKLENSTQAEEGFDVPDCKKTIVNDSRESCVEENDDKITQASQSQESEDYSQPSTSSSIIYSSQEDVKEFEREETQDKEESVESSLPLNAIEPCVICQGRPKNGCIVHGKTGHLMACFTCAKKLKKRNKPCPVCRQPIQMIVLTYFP

Row | SMILES | Ki [nM]
1 | O=C(N[C@@H](Cc1cn(Cc2ccc(OCc3ccccc3)cc2)c2cc(F)ccc12)C(=O)O)c1ccccc1Oc1ccccc1 [2-phenoxybenzoyltryptophan derivative, R3C4] | 2000
2 | O=C(N[C@@H](Cc1cn(Cc2ccc(OCc3ccccc3)cc2)c2cc(Cl)ccc12)C(=O)O)c1ccccc1Oc1ccccc1 [2-phenoxybenzoyltryptophan derivative, R2C4] | 1000
3 | O=C(N[C@@H](Cc1cn(C(=O)OCc2ccccc2)c2cc(Br)ccc12)C(=O)O)c1ccccc1Oc1ccccc1 [2-phenoxybenzoyltryptophan derivative, R1C3] | 500
4 | N#Cc1ccc2c(c1)c(C[C@H](NC(=O)c1ccccc1Oc1ccccc1)C(=O)O)cn2C(=O)OCc1ccccc1 [2-phenoxybenzoyltryptophan derivative, R4C3] | 600
5 | N#Cc1ccc2c(c1)c(C[C@H](NC(=O)c1ccccc1Oc1ccccc1)C(=O)O)cn2Cc1ccc(OCc2ccccc2)cc1 [2-phenoxybenzoyltryptophan derivative, R4C4] | 1000
6 | Cc1ccc2c(c1)c(C[C@H](NC(=O)c1ccccc1Oc1ccccc1)C(=O)O)cn2Cc1ccc(OCc2ccccc2)cc1 [2-phenoxybenzoyltryptophan derivative, R5C4] | 600
7 | O=C(N[C@@H](Cc1cn(C(=O)OCc2ccccc2)c2cc(F)ccc12)C(=O)O)c1ccccc1Oc1ccccc1 [2-phenoxybenzoyltryptophan derivative, R3C3] | 800
8 | Cc1ccc2c(c1)c(C[C@H](NC(=O)c1ccccc1Oc1ccccc1)C(=O)O)cn2C(=O)OCc1ccccc1 [2-phenoxybenzoyltryptophan derivative, R5C3] | 100
9 | O=C(N[C@@H](Cc1cn(Cc2ccc(OCc3ccccc3)cc2)c2cc(Br)ccc12)C(=O)O)c1ccccc1Oc1ccccc1 [2-phenoxybenzoyltryptophan derivative, R1C4] | 600
10 | N#Cc1ccc2c(c1)c(C[C@H](NC(=O)c1ccccc1Oc1ccccc1)C(=O)O)cn2C(=O)CCC1CCCC1 [2-phenoxybenzoyltryptophan derivative, R4C2] | 600

Second part, the molecule after the results:

Row | Ki [nM] | SMILES
11 | 800 | O=C(N[C@@H](Cc1cn(C(=O)CCC2CCCC2)c2cc(Cl)ccc12)C(=O)O)c1ccccc1Oc1ccccc1 [2-phenoxybenzoyltryptophan derivative, R2C2]
12 | 400 | O=C(N[C@@H](Cc1cn(C(=O)CCC2CCCC2)c2cc(F)ccc12)C(=O)O)c1ccccc1Oc1ccccc1 [2-phenoxybenzoyltryptophan derivative, R3C2]
13 | 6000 | O=C(N[C@@H](Cc1c[nH]c2cc(Cl)ccc12)C(=O)O)c1ccccc1Oc1ccccc1 [2-phenoxybenzoyltryptophan derivative, R2C1]
14 | 20000 | O=C(N[C@@H](Cc1c[nH]c2cc(F)ccc12)C(=O)O)c1ccccc1Oc1ccccc1 [2-phenoxybenzoyltryptophan derivative, R3C1]
15 | 200 | Cc1ccc2c(c1)c(C[C@H](NC(=O)c1ccccc1Oc1ccccc1)C(=O)O)cn2C(=O)CCC1CCCC1 [2-phenoxybenzoyltryptophan derivative, R5C2]
16 | 800 | O=C(N[C@@H](Cc1cn(C(=O)CCC2CCCC2)c2cc(Br)ccc12)C(=O)O)c1ccccc1Oc1ccccc1 [2-phenoxybenzoyltryptophan derivative, R1C2]
17 | 10000 | Cc1ccc2[nH]cc(C[C@H](NC(=O)c3ccccc3Oc3ccccc3)C(=O)O)c2c1 [2-phenoxybenzoyltryptophan derivative, R5C1]
18 | 600 | O=C(N[C@@H](Cc1cn(C(=O)OCc2ccccc2)c2cc(Cl)ccc12)C(=O)O)c1ccccc1Oc1ccccc1 [2-phenoxybenzoyltryptophan derivative, R2C3]
19 | 10000 | N#Cc1ccc2[nH]cc(C[C@H](NC(=O)c3ccccc3Oc3ccccc3)C(=O)O)c2c1 [2-phenoxybenzoyltryptophan derivative, R4C1]
20 | 3000 | O=C(N[C@@H](Cc1c[nH]c2cc(Br)ccc12)C(=O)O)c1ccccc1Oc1ccccc1 [2-phenoxybenzoyltryptophan derivative, R1C1]
